Measured values published in patent publication US20050032866A1, “The use of 5ht4 receptor antagonists in the prophylaxis or treatment of certain cardiovascular conditions” (priority 2000, published 2005).

Tests used:
[1] = molecular target: BDZ; test: receptor binding studies, BDZ
[2] = molecular target: Opiate kappa (Homo sapiens, UniProt P41145); test: receptor binding studies, Opiate kappa; details: read-out: pKi Opiate kappa (converted)
[3] = molecular target: GABA; test: receptor binding studies, GABA
[4] = molecular target: 5-HT1D (Homo sapiens, UniProt P28221); test: receptor binding studies, 5-HT1D; details: read-out: pKd 5-HT1D (converted)
Chain of 5-HT1D (P28221 whole entry, species assumed): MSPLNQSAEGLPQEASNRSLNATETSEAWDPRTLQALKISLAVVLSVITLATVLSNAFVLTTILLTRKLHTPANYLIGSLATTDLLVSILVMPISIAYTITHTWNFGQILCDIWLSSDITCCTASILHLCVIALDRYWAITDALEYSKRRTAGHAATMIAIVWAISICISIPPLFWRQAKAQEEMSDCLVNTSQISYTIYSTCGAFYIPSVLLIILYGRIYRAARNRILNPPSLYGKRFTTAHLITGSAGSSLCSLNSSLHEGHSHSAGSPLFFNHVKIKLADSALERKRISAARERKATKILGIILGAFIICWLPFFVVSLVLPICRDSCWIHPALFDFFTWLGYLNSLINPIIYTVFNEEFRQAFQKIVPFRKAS

[5] = tested on: DMPP-evoked contractions (nicotinic receptor agonist); test: guinea pig colon, DMPP-evoked contractions; format: cell-based; details: 10^−5M
Description: (§1) In some experiments, this tissue was dosed alternately with an approximately equi-effective concentration of the nicotine receptor stimulant, dimethylphenylpiperazinium (DMPP).

[6] = molecular target: 5-HT1E (Homo sapiens, UniProt P28566); test: receptor binding studies, 5-HT1E; details: read-out: pKd 5-HT1E (converted)
Chain of 5-HT1E (P28566 whole entry, species assumed): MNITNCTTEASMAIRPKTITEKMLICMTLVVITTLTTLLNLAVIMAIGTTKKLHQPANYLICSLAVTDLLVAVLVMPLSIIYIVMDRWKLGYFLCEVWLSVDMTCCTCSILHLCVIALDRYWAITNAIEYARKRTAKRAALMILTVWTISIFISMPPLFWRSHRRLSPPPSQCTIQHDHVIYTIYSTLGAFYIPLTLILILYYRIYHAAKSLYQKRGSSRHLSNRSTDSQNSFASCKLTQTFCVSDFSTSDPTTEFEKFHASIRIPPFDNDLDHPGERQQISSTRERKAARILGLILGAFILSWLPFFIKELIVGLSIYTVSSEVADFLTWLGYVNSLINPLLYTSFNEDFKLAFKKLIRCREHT

[7] = molecular target: 5-HT3 (Homo sapiens, UniProt P46098); test: receptor binding studies, 5-HT3; details: read-out: pKd 5-HT3 (converted)
Chain of 5-HT3 (P46098 24-478, species assumed): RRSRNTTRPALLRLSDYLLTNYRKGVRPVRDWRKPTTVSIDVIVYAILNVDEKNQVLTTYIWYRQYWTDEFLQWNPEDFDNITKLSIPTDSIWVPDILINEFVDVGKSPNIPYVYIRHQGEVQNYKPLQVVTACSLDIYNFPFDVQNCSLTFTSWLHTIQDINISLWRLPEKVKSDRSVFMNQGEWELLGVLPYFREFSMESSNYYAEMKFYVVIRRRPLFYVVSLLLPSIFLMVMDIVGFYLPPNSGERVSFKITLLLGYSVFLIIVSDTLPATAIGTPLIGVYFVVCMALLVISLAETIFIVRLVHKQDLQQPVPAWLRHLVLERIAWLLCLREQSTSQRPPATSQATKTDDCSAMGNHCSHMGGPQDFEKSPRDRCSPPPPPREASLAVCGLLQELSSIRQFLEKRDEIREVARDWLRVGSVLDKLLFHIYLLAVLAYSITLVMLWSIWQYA

[8] = molecular target: Opiate mu (Homo sapiens, UniProt P35372); test: receptor binding studies, Opiate mu; details: read-out: pKi Opiate mu (converted)
[9] = tested on: social interaction in rats; test: social interaction test in rats (anxiolytic activity); format: in vivo, rat
Description: Rats (male, Sprague Dawleys, Charles River, 250-300 g) are housed in groups of eight in a holding room for 5 days. They are then housed singly in a room adjacent to the experimental room for 4 days prior to the experimental day. On the experimental day rats are administered vehicle, test compound or a benzodiazepine anxiolytic, chlordiazepoxide, p.o. in pairs (n=8-16), at 15 minute intervals beginning at 10.00 a.m. […] The box is made of white perspex 54 cm×37 cm×26 cm with a transparent perspex front side and no lid. The floor is divided up into 24 squares and the box is brightly lit (115 lux). Active social interactive behaviours (grooming, sniffing, climbing over or under, following, biting, mounting and boxing) are scored blind for the next 15 min by remote video monitoring to give total interaction scores. The number of squares crossed by each rat is also scored and summed. After the end of each test the box is carefully wiped.

[10] = molecular target: D3 (Homo sapiens, UniProt P35462); test: receptor binding studies, D3; details: read-out: pKd D3 (converted)
Chain of D3 (P35462 whole entry): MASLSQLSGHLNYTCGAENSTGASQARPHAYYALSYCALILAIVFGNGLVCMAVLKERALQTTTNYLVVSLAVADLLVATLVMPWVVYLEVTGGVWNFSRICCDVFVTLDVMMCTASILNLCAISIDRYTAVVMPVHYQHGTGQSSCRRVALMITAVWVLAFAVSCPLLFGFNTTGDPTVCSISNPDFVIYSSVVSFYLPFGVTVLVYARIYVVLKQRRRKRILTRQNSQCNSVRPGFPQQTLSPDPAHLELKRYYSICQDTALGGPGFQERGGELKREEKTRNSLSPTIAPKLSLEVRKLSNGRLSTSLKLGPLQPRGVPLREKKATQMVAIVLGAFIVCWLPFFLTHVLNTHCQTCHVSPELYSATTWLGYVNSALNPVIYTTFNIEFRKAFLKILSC

[11] = molecular target: 5-HT2C (Homo sapiens, UniProt P28335); test: receptor binding studies, 5-HT2C; details: read-out: pKd 5-HT2C (converted)
Chain of 5-HT2C (P28335 33-458, species assumed): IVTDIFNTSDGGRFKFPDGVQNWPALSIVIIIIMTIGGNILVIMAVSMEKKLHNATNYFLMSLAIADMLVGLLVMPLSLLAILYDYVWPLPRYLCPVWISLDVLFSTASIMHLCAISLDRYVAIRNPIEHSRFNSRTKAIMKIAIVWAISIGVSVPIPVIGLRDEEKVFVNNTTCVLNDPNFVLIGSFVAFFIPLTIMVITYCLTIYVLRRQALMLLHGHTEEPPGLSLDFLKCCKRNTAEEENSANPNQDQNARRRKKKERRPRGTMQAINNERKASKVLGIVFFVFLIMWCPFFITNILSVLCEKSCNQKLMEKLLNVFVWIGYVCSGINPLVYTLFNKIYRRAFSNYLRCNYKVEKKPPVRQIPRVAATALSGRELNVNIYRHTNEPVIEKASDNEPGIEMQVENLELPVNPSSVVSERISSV

[12] = tested on: 5-HT4 receptor; test: 5-HT-induced motility in dog Heidenhain gastric pouch; format: in vivo
Description: Compounds are tested for inhibition in the in vivo method described in “Stimulation of canine motility by BRL 24924, a new gastric prokinetic agent”, Bermudez et al, J. Gastrointestinal Motility, 1990, 2(4), 281-286.
Dogs with previously prepared Heidenhain gastric pouches are fasted overnight.

[13] = molecular target: 5-HT2A (Homo sapiens, UniProt P28223); test: receptor binding studies, 5-HT2A; details: read-out: pKd 5-HT2A (converted)
[14] = molecular target: T1, 5-HT4 receptor (Cavia porcellus, UniProt O70528); test: guinea pig distal colon longitudinal muscle-myenteric plexus, 5-HT-evoked contraction; format: cell-based
T1 construct: Longitudinal muscle-myenteric plexus preparations, approximately 3 cm long, are obtained from the distal colon region; from tissue; host or cells: guinea-pig distal colon longitudinal muscle-myenteric plexus
T1 sequence (O70528 whole entry): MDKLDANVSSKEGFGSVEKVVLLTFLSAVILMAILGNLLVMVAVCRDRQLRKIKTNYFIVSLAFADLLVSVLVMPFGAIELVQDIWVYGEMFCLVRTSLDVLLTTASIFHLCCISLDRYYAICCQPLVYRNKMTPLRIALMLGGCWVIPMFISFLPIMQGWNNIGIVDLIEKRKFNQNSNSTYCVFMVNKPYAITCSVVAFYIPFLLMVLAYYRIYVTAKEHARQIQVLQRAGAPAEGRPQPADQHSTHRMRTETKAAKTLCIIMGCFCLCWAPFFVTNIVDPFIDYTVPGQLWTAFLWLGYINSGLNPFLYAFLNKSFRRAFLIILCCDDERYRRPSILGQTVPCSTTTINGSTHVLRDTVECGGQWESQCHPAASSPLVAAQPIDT
Description: Male guinea-pigs, weighing 250-400 g are used.
as §1

[15] = molecular target: H1 (Homo sapiens, UniProt P35367); test: receptor binding studies, H1; details: read-out: pKd H1 (converted)
Chain of H1 (P35367 whole entry): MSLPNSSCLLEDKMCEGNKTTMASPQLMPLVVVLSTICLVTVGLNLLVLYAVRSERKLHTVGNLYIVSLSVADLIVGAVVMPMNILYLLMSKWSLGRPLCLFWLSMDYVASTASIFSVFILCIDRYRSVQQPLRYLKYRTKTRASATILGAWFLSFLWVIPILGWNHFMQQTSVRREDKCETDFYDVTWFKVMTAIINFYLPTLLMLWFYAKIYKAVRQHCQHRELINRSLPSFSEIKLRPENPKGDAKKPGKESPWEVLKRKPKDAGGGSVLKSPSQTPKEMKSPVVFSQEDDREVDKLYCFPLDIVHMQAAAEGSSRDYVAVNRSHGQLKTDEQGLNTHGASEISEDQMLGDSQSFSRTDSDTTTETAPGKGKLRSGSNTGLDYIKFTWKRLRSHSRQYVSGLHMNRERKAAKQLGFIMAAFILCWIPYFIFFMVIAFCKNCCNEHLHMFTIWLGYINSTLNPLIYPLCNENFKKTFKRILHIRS

[16] = molecular target: 5-HT1A (Homo sapiens, UniProt P08908); test: receptor binding studies, 5-HT1A; details: read-out: pKd 5-HT1A (converted)
Chain of 5-HT1A (P08908 whole entry, species assumed): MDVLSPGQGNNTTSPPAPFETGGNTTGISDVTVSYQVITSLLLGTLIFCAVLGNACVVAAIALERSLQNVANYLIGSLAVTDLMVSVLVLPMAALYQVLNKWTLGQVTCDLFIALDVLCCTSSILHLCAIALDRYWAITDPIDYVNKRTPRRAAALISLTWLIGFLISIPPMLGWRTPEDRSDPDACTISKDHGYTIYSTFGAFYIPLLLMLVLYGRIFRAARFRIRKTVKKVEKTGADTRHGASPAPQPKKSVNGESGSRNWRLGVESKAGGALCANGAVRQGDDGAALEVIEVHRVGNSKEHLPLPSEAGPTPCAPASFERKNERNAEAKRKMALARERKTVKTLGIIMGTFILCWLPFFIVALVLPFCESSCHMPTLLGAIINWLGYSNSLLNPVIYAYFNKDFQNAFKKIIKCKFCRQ

[17] = molecular target: D2 (Homo sapiens, UniProt P14416); test: receptor binding studies, D2; details: read-out: pKd D2 (converted)
Chain of D2 (P14416 whole entry): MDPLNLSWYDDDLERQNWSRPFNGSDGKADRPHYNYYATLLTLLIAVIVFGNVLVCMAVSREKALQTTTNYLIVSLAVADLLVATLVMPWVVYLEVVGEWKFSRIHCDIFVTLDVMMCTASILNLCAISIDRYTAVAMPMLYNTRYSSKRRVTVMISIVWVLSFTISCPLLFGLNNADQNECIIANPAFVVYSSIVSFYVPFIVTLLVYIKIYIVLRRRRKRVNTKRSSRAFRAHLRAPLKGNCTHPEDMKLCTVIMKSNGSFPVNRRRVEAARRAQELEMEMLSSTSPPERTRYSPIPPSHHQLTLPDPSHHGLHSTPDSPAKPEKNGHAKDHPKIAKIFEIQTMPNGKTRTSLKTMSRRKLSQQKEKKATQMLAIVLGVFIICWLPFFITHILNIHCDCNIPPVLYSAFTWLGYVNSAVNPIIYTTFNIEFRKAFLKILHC

[18] = tested on: 5-HT4 receptors; test: antagonism of 5-HT-evoked tachycardia in anaesthetised piglets; format: in vivo, piglet
From the text: All experiments were in 2-5 day old piglets in which the vagi were sectioned.

[19] = molecular target: Alpha1; test: receptor binding studies, Alpha1
[20] = molecular target: T2, 5-HT4 receptor (Rattus norvegicus, UniProt Q62758); test: rat oesophageal tunica muscularis mucosae, relaxation to 5-HT; format: cell-based
T2 construct: The inner smooth muscle tube of the muscularis mucosae is isolated and mounted for isometric tension recording; from tissue; host or cells: rat oesophageal tunica muscularis mucosae
From the text: Rat oesophageal tunica muscularis mucosae is set up according to Baxter et. al. Naunyn-Schmiedeberg's Arch.

[21] = molecular target: Opiate delta (Homo sapiens, UniProt P41143); test: receptor binding studies, Opiate delta; details: read-out: pKi Opiate delta (converted)
[22] = molecular target: T3, 5-HT2B receptor (Rattus norvegicus, UniProt P30994); test: functional studies on the rat stomach fundus; format: cell-based
T3 construct: from tissue; host or cells: rat stomach fundus
T3 sequence (P30994 whole entry): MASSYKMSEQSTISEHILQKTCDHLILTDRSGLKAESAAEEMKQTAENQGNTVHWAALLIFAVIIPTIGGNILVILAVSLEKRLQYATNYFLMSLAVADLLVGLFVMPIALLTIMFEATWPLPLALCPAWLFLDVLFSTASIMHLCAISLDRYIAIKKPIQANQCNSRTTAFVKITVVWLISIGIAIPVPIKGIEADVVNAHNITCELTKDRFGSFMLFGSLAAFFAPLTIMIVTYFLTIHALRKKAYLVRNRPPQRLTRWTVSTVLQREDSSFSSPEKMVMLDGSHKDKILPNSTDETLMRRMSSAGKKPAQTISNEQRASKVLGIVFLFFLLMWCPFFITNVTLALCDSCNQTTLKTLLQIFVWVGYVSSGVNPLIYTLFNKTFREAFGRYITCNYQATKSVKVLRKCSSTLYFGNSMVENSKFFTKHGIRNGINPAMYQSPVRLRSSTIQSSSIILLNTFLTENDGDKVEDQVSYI

Chain of Opiate kappa (P41145 whole entry): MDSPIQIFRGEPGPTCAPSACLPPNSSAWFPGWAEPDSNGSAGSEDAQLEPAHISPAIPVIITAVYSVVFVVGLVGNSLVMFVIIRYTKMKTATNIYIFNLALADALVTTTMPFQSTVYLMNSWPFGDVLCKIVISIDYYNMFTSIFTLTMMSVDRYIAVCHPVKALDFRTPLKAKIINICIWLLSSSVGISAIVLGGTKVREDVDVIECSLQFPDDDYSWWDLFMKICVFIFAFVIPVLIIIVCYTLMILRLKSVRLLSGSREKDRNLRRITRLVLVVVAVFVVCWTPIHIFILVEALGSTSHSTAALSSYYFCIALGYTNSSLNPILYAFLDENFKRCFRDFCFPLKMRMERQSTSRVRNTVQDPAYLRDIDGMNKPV

Structure (SMILES): CCCCN1CCC(CNC(=O)c2c3n(c4ccccc24)CCCO3)CC1 [SB-207266-A, N-[(1-^nbutyl-4-piperidinyl)methyl]-3,4-dihydro-2H-[1,3]oxazino[3,2-a]indole-10-carboxamide]
- pKd BDZ [1]: >5.00
- Ki [2]: < 1 µM
- pKd GABA [3]: >5.00
- Kd [4]: > 10 µM
- DMPP-evoked contractions [5]: unaffected
- Kd [6]: > 10 µM
- Kd [7]: 1.15 µM
- Ki [8]: < 1 µM
- total interaction scores ([9]; 0.01, 1, 10 mg.kg^−1, 1 h after administration): Significantly increased
- locomotion during the test ([9]; rat, in vivo): not accompanied by any alteration in locomotion
- Kd [10]: 2.95 µM
- Kd [11]: 2.69 µM
- effect on basal motility ([12]; any dose): no effect
- ID50, antagonism of the contractile response to 5-HT ([12]; iv): 1.3 (Confidence Limits 0.1-14.0) ug.kg^−1
- ID50, antagonism of the contractile response to 5-HT ([12]; po): 9.6 (CL 0.7-128) ug.kg^−1
- Kd [13]: 1.29 µM
- contraction evoked by the 5-HT4 receptor partial agonist BIMU 1 [14]: reduced the maximum response to BIMU 1
- maximum response to 5-HT ([14]; 3×10^−8 M and above): reduced in a concentration-dependent manner
- time for recovery of responses to 5-HT upon washout ([14]; highest concentrations (which reduce maximum 5-HT-evoked contractions)): ≤ 90 min
- Kd [15]: 3.98 µM
- Kd [16]: > 10 µM
- Kd [17]: 2.34 µM
- antagonism of 5-HT-evoked tachycardia ([18]; 0.1, 0.3 or 1.0 ugkg^−1 intravenously, n=2 each): antagonised the 5-HT-evoked tachycardia in a dose-dependent manner
- recovery from antagonism ([18]; 0.3, 1.0 ugkg^−1 i.v., over the duration of the experiment): incomplete
- pKd Alpha1 [19]: <5.52
- type of antagonism of 5-HT response [20]: non-surmountable antagonist
- Ki [21]: < 1 µM
- affinity for the 5-HT2B receptor [22]: 7.47
